The target in one experiment is T1, NOX1 (Homo sapiens, UniProt Q9Y5S8).
T1 construct: endogenous in cells; host or cells: HT29
T1 sequence (Q9Y5S8 1-564): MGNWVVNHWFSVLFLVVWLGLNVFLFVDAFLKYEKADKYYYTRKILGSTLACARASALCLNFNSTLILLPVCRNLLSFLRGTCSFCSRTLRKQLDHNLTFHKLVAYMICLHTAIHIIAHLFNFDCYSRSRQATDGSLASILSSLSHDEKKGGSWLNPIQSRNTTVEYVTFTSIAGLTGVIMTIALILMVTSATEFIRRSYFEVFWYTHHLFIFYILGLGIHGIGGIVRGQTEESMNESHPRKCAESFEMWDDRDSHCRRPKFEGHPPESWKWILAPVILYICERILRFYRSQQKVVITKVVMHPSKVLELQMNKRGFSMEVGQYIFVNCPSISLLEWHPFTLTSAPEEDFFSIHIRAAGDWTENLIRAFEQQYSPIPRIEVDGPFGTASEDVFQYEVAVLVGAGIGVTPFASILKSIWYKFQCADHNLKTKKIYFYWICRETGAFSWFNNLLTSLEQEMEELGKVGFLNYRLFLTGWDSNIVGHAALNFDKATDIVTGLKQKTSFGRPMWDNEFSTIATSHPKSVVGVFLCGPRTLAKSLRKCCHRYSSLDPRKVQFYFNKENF
T1 sequence (P13498 2-195 partner limits assumed): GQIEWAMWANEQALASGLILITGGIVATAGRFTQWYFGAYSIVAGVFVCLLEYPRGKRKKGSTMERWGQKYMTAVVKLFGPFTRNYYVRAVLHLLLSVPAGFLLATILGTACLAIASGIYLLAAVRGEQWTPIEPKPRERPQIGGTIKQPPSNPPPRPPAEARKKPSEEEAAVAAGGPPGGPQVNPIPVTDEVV
The experiment can be described thus: NOX1 HT29 cell-based assay (luminol/HRP luminescence). To be noted: HT29 cells, DMSO = 0%, GKT137831 = 100%; for inhibition at 0.1 µM / inhibition at 1 µM: HT-29. The method, boiled down:
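HT29 cells (1-2×10^5 per well) pretreated 30-60 min at 37 °C with compound at 100 nM and 1000 nM final, in duplicate, 0.1% DMSO. ROS read as luminol (100 μM)/HRP (0.4 U) luminescence. Activity normalised to DMSO (0%) and GKT137831 (100%).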

For the next experiment, the target named is T2, NOX2 (Homo sapiens, UniProt P04839).
T2 construct: HL-60 cells, rich in NOX2 expression; endogenous in cells; host or cells: DMSO-differentiated HL-60
T2 sequence (P04839 2-570 limits assumed): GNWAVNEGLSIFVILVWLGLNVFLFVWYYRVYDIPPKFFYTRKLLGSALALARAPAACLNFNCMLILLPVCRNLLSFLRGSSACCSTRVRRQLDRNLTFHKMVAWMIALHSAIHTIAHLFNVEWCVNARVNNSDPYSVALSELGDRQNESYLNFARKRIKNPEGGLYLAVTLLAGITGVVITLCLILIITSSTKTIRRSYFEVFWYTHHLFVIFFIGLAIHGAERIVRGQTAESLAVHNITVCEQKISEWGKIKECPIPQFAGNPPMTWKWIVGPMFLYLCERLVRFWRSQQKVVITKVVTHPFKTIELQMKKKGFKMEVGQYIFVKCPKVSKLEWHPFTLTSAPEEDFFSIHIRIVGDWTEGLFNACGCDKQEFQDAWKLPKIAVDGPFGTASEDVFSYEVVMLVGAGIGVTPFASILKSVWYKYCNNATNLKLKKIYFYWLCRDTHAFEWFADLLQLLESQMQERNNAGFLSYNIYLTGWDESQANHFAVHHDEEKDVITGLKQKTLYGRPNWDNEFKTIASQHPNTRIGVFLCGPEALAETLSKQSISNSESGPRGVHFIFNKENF
T2 sequence (P13498 2-195 partner limits assumed): T1 sequence (P13498 2-195 partner limits assumed)
The experiment can be described thus: NOX2 HL60 cell-based assay (PMA oxidative burst, L012 chemiluminescence). To be noted: DMSO-differentiated HL-60 cells, PMA-stimulated; for inhibition at 0.1 µM: HL-60, 100 nM; for inhibition at 1 µM: HL-60, 1000 nM. The method in brief:
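DMSO-differentiated HL-60 cells (2.5×10^5/well) with 100 μM L012 preincubated with compound 30-60 min at 37 °C in the dark. Oxidative burst triggered by 10 ng/mL PMA; superoxide chemiluminescence read every 5 min for 60 min.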

Another experiment deals with T3, NOX4 (Homo sapiens, UniProt Q9NPH5).
T3 construct: expressed in transfected cells
T3 sequence (Q9NPH5 1-578): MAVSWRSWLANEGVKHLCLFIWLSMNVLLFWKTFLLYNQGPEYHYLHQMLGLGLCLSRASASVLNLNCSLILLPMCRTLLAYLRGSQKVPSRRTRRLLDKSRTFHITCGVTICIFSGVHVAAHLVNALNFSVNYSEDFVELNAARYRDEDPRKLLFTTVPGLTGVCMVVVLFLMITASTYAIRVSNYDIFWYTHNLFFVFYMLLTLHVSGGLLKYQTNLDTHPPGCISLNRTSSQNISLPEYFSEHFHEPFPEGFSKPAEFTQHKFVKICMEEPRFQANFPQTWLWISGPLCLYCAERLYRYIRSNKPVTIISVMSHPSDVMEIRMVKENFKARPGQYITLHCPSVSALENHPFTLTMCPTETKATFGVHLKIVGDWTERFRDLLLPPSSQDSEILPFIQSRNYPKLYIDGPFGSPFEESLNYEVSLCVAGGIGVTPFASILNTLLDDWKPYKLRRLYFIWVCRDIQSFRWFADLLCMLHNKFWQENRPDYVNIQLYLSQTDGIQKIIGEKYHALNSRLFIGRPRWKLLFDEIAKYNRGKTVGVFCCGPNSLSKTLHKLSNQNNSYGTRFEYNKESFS
T3 sequence (P13498 2-195 partner limits assumed): T1 sequence (P13498 2-195 partner limits assumed)
Description: NOX4 HEK293 overexpression cell-based assay (Amplex Red H2O2). To be noted: HEK293 cells stably overexpressing NOX4, DMSO = 0, GKT137831 = 100; for inhibition at 1 µM: HEK293, 1000 nM; for inhibition at 0.1 µM: HEK293, 100 nM. The method, boiled down: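 HEK293 cells stably overexpressing NOX4 (3×10^4) preincubated 30 min at 37° C with compound in KRPG buffer, then mixed with Amplex Red reagent solution (50 μM Amplex Red, 0.1 units/mL HRP) for 90 min at 37° C in the dark. Supernatant fluorescence read at 530/590 nm; DMSO set to 0 and GKT137831 to 100.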

One may read the inhibition as the percentage by which the read-out fell short of the control. Read a high inhibition as strong suppression.

Turning to `COc1ccc(-c2[nH]c3cc(OC)c(OC)cc3c(=O)c2O)cc1` [Compound 2, 3-hydroxy-6,7-dimethoxy-2-(4-methoxyphenyl) quinolin-4(1H)-one 2,2,2-trifluoroacetate], the inhibition at 0.1 µM was ≥ 80% against NOX1 (100 nM) and ≤ 19% against NOX2. Also, the inhibition at 1 µM against NOX1 (1000 nM) was ≥ 80%; against NOX2, 50 to 79%; at NOX4, ≥ 80%. Also, the “% Inhibition NOX4” value at NOX4 (100 nM) is “C (the percent of inhibition of NOX by the compounds ranges from 2000 to 49%)”.
Turning to `COc1cc2[nH]c(-c3ccccc3OC(F)(F)F)c(O)c(=O)c2cc1OC.Cl` [Compound 52], the “% Inhibition NOX1” value at NOX1 (100 nM) and on NOX1 (1000 nM) was “A (the percent of inhibition of NOX by the compounds is larger than or equals to 80%)” throughout. Also, the “% Inhibition NOX2” value at NOX2 (100 nM) was “C (the percent of inhibition of NOX by the compounds ranges from 2000 to 49%)”; on NOX2 (1000 nM) it was “B (the percent of inhibition of NOX by the compounds ranges from 50% o to 79% o)”. Further, the “% Inhibition NOX4” value on NOX4 (100 nM) is on record as “C (the percent of inhibition of NOX by the compounds ranges from 2000 to 49%)”; at NOX4 (1000 nM), “B (the percent of inhibition of NOX by the compounds ranges from 50% o to 79% o)”.
Take `COc1ccc(-c2[nH]c3cc(C(=O)O)ccc3c(=O)c2O)cc1` [Compound 33, 3-hydroxy-2-(4-methoxyphenyl)-4-oxo-1,4-dihydroquinoline-7-carboxylic acid]: the inhibition at 0.1 µM on NOX1 (100 nM) is ≥ 80%; at NOX2, ≤ 19%; at NOX4, ≤ 19%. For the same molecule, the inhibition at 1 µM at NOX1 (1000 nM) is ≥ 80%; on NOX2, 50 to 79%; against NOX4, 50 to 79%.
Consider `COc1cc2[nH]c(-c3ccccc3OC)c(N)c(=O)c2cc1OC` [Compound 38], for which the inhibition at 0.1 µM against NOX1 (100 nM), against NOX2 and on NOX4 was ≤ 19% throughout. The inhibition at 1 µM against NOX1 (1000 nM) and against NOX2 was ≤ 19% in each case. Besides, the “% Inhibition NOX4” value at NOX4 (1000 nM) was “C (the percent of inhibition of NOX by the compounds ranges from 2000 to 49%)”.
Consider `COc1cc2[nH]c(-c3ccc(C(F)(F)F)cc3)c(O)c(=O)c2cc1OC` [Compound 12], for which the inhibition at 0.1 µM at NOX1 (100 nM), against NOX2 and at NOX4 was ≤ 19% in each case. Further, the inhibition at 1 µM was ≥ 80% at NOX1 (1000 nM), ≤ 19% against NOX2 and ≥ 80% on NOX4.
For `COc1cc2[nH]c(-c3ccccc3F)c(O)c(=O)c2cc1OC` [Compound 18], at NOX1 (100 nM), the inhibition at 0.1 µM is ≥ 80%. The results for the inhibition at 1 µM at NOX1 (1000 nM), on NOX2 and against NOX4 were ≥ 80%, 50 to 79% and 50 to 79%, respectively. In addition, the “% Inhibition NOX2” value at NOX2 (100 nM) is given as “C (the percent of inhibition of NOX by the compounds ranges from 2000 to 49%)”. For the same molecule, at NOX4 (100 nM), the “% Inhibition NOX4” value is on record as “C (the percent of inhibition of NOX by the compounds ranges from 2000 to 49%)”.
For the molecule `COc1ccccc1-c1[nH]c2c(OC)c(OC)c(OC)cc2c(=O)c1O` [Compound 19], the results for the inhibition at 0.1 µM against NOX1 (100 nM), against NOX2 and at NOX4 were ≥ 80%, ≤ 19% and ≤ 19%, respectively. In addition, the inhibition at 1 µM against NOX1 (1000 nM) was ≥ 80%; against NOX2 it was 50 to 79%; against NOX4, 50 to 79%.
Take `COc1cccc(-c2[nH]c3cc(OC)c(OC)cc3c(=O)c2O)c1` [Compound 4]: the inhibition at 0.1 µM at NOX1 (100 nM) is 50 to 79%; on NOX2, ≤ 19%; against NOX4, ≤ 19%. Besides, the inhibition at 1 µM against NOX1 (1000 nM) is ≥ 80%; on NOX2, 50 to 79%; on NOX4, ≥ 80%.
Take `COc1cc2[nH]c(-c3ccccc3N)c(O)c(=O)c2cc1OC` [Compound 30, 2-(2-aminophenyl)-3-hydroxy-6,7-dimethoxyquinolin-4(1H)-one]: the inhibition at 0.1 µM against NOX1 (100 nM) is ≤ 19%; against NOX2, 50 to 79%; against NOX4, ≤ 19%. The inhibition at 1 µM is ≥ 80% at NOX1 (1000 nM), ≥ 80% against NOX2 and ≤ 19% against NOX4.
With `COc1ccccc1-c1[nH]c2cccc(Br)c2c(=O)c1O` [Compound 25], the inhibition at 0.1 µM on NOX1 (100 nM) was 50 to 79%; on NOX2, ≤ 19%; against NOX4 it was ≤ 19%. The inhibition at 1 µM against NOX1 (1000 nM) was ≥ 80%; on NOX2 it was 50 to 79%. At NOX4 (1000 nM), the “% Inhibition NOX4” value is listed as “C (the percent of inhibition of NOX by the compounds ranges from 2000 to 49%)”.
Consider `COc1cc2[nH]c(-c3ccccc3S(C)(=O)=O)c(O)c(=O)c2cc1OC` [Compound 23], for which the inhibition at 0.1 µM against NOX1 (100 nM) is ≥ 80%; at NOX2 it was 50 to 79%; against NOX4, 50 to 79%. Also, the inhibition at 1 µM is ≥ 80% on NOX1 (1000 nM), ≥ 80% on NOX2 and 50 to 79% against NOX4.
Regarding `COc1ccc(-c2[nH]c3ccsc3c(=O)c2O)cc1` [Compound 10], the inhibition at 0.1 µM against NOX1 (100 nM) was ≥ 80%; against NOX2 it was ≤ 19%. The inhibition at 1 µM against NOX1 (1000 nM) and against NOX4 was ≥ 80% throughout. Also, at NOX2 (1000 nM), the “% Inhibition NOX2” value is “C (the percent of inhibition of NOX by the compounds ranges from 2000 to 49%)”. For the same molecule, the “% Inhibition NOX4” value at NOX4 (100 nM) is on record as “C (the percent of inhibition of NOX by the compounds ranges from 2000 to 49%)”.

The record behind these values is patent US11661400B2, “NADPH oxidase inhibitors, pharmaceutical composition comprising the same, and application thereof” (TAIWANJ PHARMACEUTICALS CO., LTD., priority 2018, dated 2023).
